Measured values taken from patent US20240059671A1, “TYROSINE KINASE 2 (TYK2) DEGRADATION COMPOUNDS AND METHODS OF USE” (CULLGEN (SHANGHAI), INC., priority 2020, published 2024).
“Also recorded” adds a separate entry of the source.

Target: TYK2 (Homo sapiens, UniProt P29597)
Experiment: TYK2 protein degradation in NOMO-1 cells by immunoblotting
Format: cell-based
Design: endogenous in cells
Details: for TYK2 Degradation (NOMO-1, 10 nM) / TYK2 Degradation (NOMO-1, 100 nM): NOMO-1 cells
Protocol: NOMO-1 cells were treated with CPD-155, CPD-157, and CPD-158 at 0.1, 1, 10, 100 and 1000 nM concentrations for 16 hours. […] Data shown that CPD-155, CPD-157, and CPD-158 are very potent at the reduction protein levels of TYK2.
MOLT-4 or NOMO-1 cells were cultured at 37° C. with 5% CO2 in RPMI 1640 Medium supplemented with 10% fetal bovine serum. Cells were authenticated using the short tandem repeat (STR) assays. Mycoplasma test results were negative.
Cultured cells were washed with cold PBS once and lysed in cold RIPA buffer supplemented with protease inhibitors and phosphatase inhibitors (Beyotime Biotechnology). The solutions were then incubated at 4° C. for 30 minutes with gentle agitation to fully lyse cells. Cell lysates were centrifuged at 13,000 rpm for 10 minutes at 4° C. and pellets were discarded. Total protein concentrations in the lysates were determined by BCA assays (Beyotime Biotechnology). Cell lysates were mixed with Laemmli loading buffer to 1× and heated at 99° C. for 5 min. Proteins were resolved on SDS-PAGE and visualized by chemiluminescence. Images were taken by a ChemiDoc MP Imaging system (Bio-Rad). Protein bands were quantitated using the accompanied software provided by Bio-Rad.

TYK2, sequence (P29597 whole entry): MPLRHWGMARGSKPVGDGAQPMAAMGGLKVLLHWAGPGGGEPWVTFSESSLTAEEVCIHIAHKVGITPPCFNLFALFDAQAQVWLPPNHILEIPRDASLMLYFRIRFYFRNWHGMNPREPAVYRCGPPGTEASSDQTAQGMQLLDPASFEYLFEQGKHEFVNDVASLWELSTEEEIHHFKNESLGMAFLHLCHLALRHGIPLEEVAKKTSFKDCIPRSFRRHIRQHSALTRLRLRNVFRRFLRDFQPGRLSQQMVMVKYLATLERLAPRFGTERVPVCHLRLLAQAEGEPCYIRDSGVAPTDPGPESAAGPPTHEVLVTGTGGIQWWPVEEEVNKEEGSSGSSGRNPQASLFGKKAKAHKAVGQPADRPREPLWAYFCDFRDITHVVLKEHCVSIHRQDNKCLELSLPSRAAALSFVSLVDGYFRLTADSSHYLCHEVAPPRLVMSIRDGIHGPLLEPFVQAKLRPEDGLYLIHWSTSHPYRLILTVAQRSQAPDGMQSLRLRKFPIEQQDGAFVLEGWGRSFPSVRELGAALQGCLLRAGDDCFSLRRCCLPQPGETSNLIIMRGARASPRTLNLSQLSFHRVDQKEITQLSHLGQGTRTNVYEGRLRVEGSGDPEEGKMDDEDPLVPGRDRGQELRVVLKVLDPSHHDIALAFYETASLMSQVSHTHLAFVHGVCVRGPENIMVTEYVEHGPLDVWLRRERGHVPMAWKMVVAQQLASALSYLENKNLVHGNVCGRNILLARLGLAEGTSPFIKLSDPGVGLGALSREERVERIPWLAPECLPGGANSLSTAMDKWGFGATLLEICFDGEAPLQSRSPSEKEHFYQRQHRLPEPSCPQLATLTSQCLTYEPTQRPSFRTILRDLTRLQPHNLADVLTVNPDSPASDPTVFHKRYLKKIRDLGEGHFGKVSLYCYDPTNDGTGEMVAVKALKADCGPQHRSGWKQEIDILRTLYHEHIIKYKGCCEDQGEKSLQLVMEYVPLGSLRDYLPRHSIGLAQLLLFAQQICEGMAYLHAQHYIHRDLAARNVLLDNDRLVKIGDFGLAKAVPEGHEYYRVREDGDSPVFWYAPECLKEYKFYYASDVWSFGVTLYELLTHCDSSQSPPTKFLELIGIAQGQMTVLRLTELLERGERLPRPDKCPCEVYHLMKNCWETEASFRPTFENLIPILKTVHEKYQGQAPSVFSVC

TYK2 Degradation (NOMO-1, 10 nM) | TYK2 Degradation (NOMO-1, 100 nM) | SMILES | Reduction of TYK2 protein levels over a dose range (FIG. 2) (NOMO-1 cells, 0.1, 1, 10, 100 and 1000 nM, 16 hours)
C (C: ≤20% TYK2 degradation) | A (A: ≥60% TYK2 degradation) | CNC(=O)c1nnc(Nc2ccc(CNC(=O)CCCCC(=O)N[C@H](C(=O)N3C[C@H](O)C[C@H]3C(=O)N[C@@H](C)c3ccc(-c4scnc4C)cc3)C(C)(C)C)cn2)cc1Nc1cccc(-c2ncn(C)n2)c1OC [CPD-129, N1-((S)-1-((2S,4R)-4-Hydroxy-2-(((S)-1-(4-(4-methylthiazol-5-yl)phenyl)ethyl)carbamoyl)pyrrolidin-1-yl)-3,3-dimethyl-1-oxobutan-2-yl)-N6-((6-((5-((2-methoxy-3-(1-methyl-1H-1,2,4-triazol-3-yl)phenyl)amino)-6-(methylcarbamoyl)pyridazin-3-yl)amino)pyridin-3-yl)methyl)adipamide] | –
C (C: ≤20% TYK2 degradation) | C (C: ≤20% TYK2 degradation) | CNC(=O)c1nnc(Nc2ccc(N3CCN(C(=O)CCCCCCC(=O)N[C@H](C(=O)N4C[C@H](O)C[C@H]4C(=O)N[C@H]4CCCc5c4cc(C#N)n5C)C(C)(C)C)CC3)cn2)cc1Nc1cccc(-c2ncn(C)n2)c1OC [CDD-173, 6-((5-(4-(8-(((S)-1-((2S,4R)-2-(((S)-2-cyano-1-methyl-4,5,6,7-tetrahydro-1H-indol-4-yl)carbamoyl)-4-hydroxypyrrolidin-1-yl)-3,3-dimethyl-1-oxobutan-2-yl)amino)-8-oxooctanoyl)piperazin-1-yl)pyridin-2-yl)amino)-4-((2-methoxy-3-(1-methyl-1H-1,2,4-triazol-3-yl)phenyl)amino)-N-methylpyridazine-3-carboxamide] | –
C (C: ≤20% TYK2 degradation) | C (C: ≤20% TYK2 degradation) | CNC(=O)c1nnc(Nc2ccc(C(=O)NCCCCCCNc3ccc4c(c3)C(=O)N(C3CCC(=O)NC3=O)C4=O)cn2)cc1Nc1cccc(-c2ncn(C)n2)c1OC (centres unmarked) [CPD-165, 6-((5-((6-((2-(2,6-dioxopiperidin-3-yl)-1,3-dioxoisoindolin-5-yl)amino)hexyl)carbamoyl)pyridin-2-yl)amino)-4-((2-methoxy-3-(1-methyl-1H-1,2,4-triazol-3-yl)phenyl)amino)-N-methylpyridazine-3-carboxamide] | –
C (C: ≤20% TYK2 degradation) | C (C: ≤20% TYK2 degradation) | CNC(=O)c1nnc(Nc2ccc(N3CCN(C(=O)CCCCCCC(=O)N[C@H](C(=O)N4C[C@H](O)C[C@H]4C(=O)N[C@H]4CCCc5[nH]c(=O)c(C)cc54)C(C)(C)C)CC3)cn2)cc1Nc1cccc(-c2ncn(C)n2)c1OC [CDD-174, 6-((5-(4-(8-(((S)-1-((2S,4R)-4-hydroxy-2-(((S)-3-methyl-2-oxo-1,2,5,6,7,8-hexahydroquinolin-5-yl)carbamoyl)pyrrolidin-1-yl)-3,3-dimethyl-1-oxobutan-2-yl)amino)-8-oxooctanoyl)piperazin-1-yl)pyridin-2-yl)amino)-4-((2-methoxy-3-(1-methyl-1H-1,2,4-triazol-3-yl)phenyl)amino)-N-methylpyridazine-3-carboxamide] | –
A (A: ≥60% TYK2 degradation) | C (C: ≤20% TYK2 degradation) | CNC(=O)c1nnc(Nc2ccc(C(=O)NCCCCCCCNc3cccc4c3C(=O)N(C3CCC(=O)NC3=O)C4=O)cn2)cc1Nc1cccc(-c2ncn(C)n2)c1OC (centres unmarked) [CPD-157, 6-((5-((7-((2-(2,6-dioxopiperidin-3-yl)-1,3-dioxoisoindolin-4-yl)amino)heptyl)carbamoyl)pyridin-2-yl)amino)-4-((2-methoxy-3-(1-methyl-1H-1,2,4-triazol-3-yl)phenyl)amino)-N-methylpyridazine-3-carboxamide] | concentration-dependently reduced the TYK2 proteins levels; also recorded: highly potent in reducing TYK2 protein levels
A (A: ≥60% TYK2 degradation) | A (A: ≥60% TYK2 degradation) | CNC(=O)c1nnc(Nc2ccc(C(=O)NCCOCCNc3cccc4c3C(=O)N(C3CCC(=O)NC3=O)C4=O)cn2)cc1Nc1cccc(-c2ncn(C)n2)c1OC (centres unmarked) [CPD-159, 6-((5-((2-(2-((2-(2,6-dioxopiperidin-3-yl)-1,3-dioxoisoindolin-4-yl)amino)ethoxy)ethyl)carbamoyl)pyridin-2-yl)amino)-4-((2-methoxy-3-(1-methyl-1H-1,2,4-triazol-3-yl)phenyl)amino)-N-methylpyridazine-3-carboxamide] | –
A (A: ≥60% TYK2 degradation) | A (A: ≥60% TYK2 degradation) | CNC(=O)c1nnc(Nc2ccc(C#CC3CCN(C(=O)CCCC(=O)N[C@H](C(=O)N4C[C@H](O)C[C@H]4C(=O)N[C@@H](C)c4ccc(-c5scnc5C)cc4)C(C)(C)C)CC3)cn2)cc1Nc1cccc(-c2ncn(C)n2)c1OC [CPD-134, 6-((5-((1-(5-(((S)-1-((2S,4R)-4-hydroxy-2-(((S)-1-(4-(4-methylthiazol-5-yl)phenyl)ethyl)carbamoyl)pyrrolidin-1-yl)-3,3-dimethyl-1-oxobutan-2-yl)amino)-5-oxopentanoyl)piperidin-4-yl)ethynyl)pyridin-2-yl)amino)-4-((2-methoxy-3-(1-methyl-1H-1,2,4-triazol-3-yl)phenyl)amino)-N-methylpyridazine-3-carboxamide] | –
A (A: ≥60% TYK2 degradation) | A (A: ≥60% TYK2 degradation) | CNC(=O)c1nnc(Nc2ccc(N3CCN(C4CCN(C(=O)CCCCCCCCC(=O)N[C@H](C(=O)N5C[C@H](O)C[C@H]5C(=O)N[C@@H](C)c5ccc(-c6scnc6C)cc5)C(C)(C)C)CC4)CC3)cn2)cc1Nc1cccc(-c2ncn(C)n2)c1OC [CPD-151, 6-((5-(4-(1-(10-(((S)-1-((2S,4R)-4-hydroxy-2-(((S)-1-(4-(4-methylthiazol-5-yl)phenyl)ethyl)carbamoyl)pyrrolidin-1-yl)-3,3-dimethyl-1-oxobutan-2-yl)amino)-10-oxodecanoyl)piperidin-4-yl)piperazin-1-yl)pyridin-2-yl)amino)-4-((2-methoxy-3-(1-methyl-1H-1,2,4-triazol-3-yl)phenyl)amino)-N-methylpyridazine-3-carboxamide] | –

SMILES | TYK2 Degradation (NOMO-1, 10 nM) | TYK2 Degradation (NOMO-1, 100 nM) | Reduction of TYK2 protein levels over a dose range (FIG. 2) (NOMO-1 cells, 0.1, 1, 10, 100 and 1000 nM, 16 hours)
CNC(=O)c1nnc(Nc2ccc(CNCCCCCCCC(=O)N[C@H](C(=O)N3C[C@H](O)C[C@H]3C(=O)N[C@@H](C)c3ccc(-c4scnc4C)cc3)C(C)(C)C)cn2)cc1Nc1cccc(-c2ncn(C)n2)c1OC [CPD-162, 6-((5-(((8-(((S)-1-((2S,4R)-4-hydroxy-2-(((S)-1-(4-(4-methylthiazol-5-yl)phenyl)ethyl)carbamoyl)pyrrolidin-1-yl)-3,3-dimethyl-1-oxobutan-2-yl)amino)-8-oxooctyl)amino)methyl)pyridin-2-yl)amino)-4-((2-methoxy-3-(1-methyl-1H-1,2,4-triazol-3-yl)phenyl)amino)-N-methylpyridazine-3-carboxamide] | B (B: <60% TYK2 degradation, and >20% TYK2 degradation) | A (A: ≥60% TYK2 degradation) | –
CNC(=O)c1nnc(Nc2ccc(CNC(=O)CCCCCC(=O)N[C@H](C(=O)N3C[C@H](O)C[C@H]3C(=O)N[C@@H](C)c3ccc(-c4scnc4C)cc3)C(C)(C)C)cn2)cc1Nc1cccc(-c2ncn(C)n2)c1OC [CPD-130, N1-((S)-1-((2S,4R)-4-Hydroxy-2-(((S)-1-(4-(4-methylthiazol-5-yl)phenyl)ethyl)carbamoyl)pyrrolidin-1-yl)-3,3-dimethyl-1-oxobutan-2-yl)-N7-((6-((5-((2-methoxy-3-(1-methyl-1H-1,2,4-triazol-3-yl)phenyl)amino)-6-(methylcarbamoyl)pyridazin-3-yl)amino)pyridin-3-yl)methyl)heptanediamide] | – | B (B: <60% TYK2 degradation, and >20% TYK2 degradation) | –
CNC(=O)c1nnc(Nc2ccc(N3CCN(C4CCN(C(=O)CCCCC(=O)N[C@H](C(=O)N5C[C@H](O)C[C@H]5C(=O)N[C@@H](C)c5ccc(-c6scnc6C)cc5)C(C)(C)C)CC4)CC3)cn2)cc1Nc1cccc(-c2ncn(C)n2)c1OC [CPD-147, 6-((5-(4-(1-(6-(((S)-1-((2S,4R)-4-Hydroxy-2-(((S)-1-(4-(4-methylthiazol-5-yl)phenyl)ethyl)carbamoyl)pyrrolidin-1-yl)-3,3-dimethyl-1-oxobutan-2-yl)amino)-6-oxohexanoyl)piperidin-4-yl)piperazin-1-yl)pyridin-2-yl)amino)-4-((2-methoxy-3-(1-methyl-1H-1,2,4-triazol-3-yl)phenyl)amino)-N-methylpyridazine-3-carboxamide] | B (B: <60% TYK2 degradation, and >20% TYK2 degradation) | A (A: ≥60% TYK2 degradation) | –
CNC(=O)c1nnc(Nc2ccc(N3CCN(C4CCN(C(=O)CCC(=O)N[C@H](C(=O)N5C[C@H](O)C[C@H]5C(=O)N[C@@H](C)c5ccc(-c6scnc6C)cc5)C(C)(C)C)CC4)CC3)cn2)cc1Nc1cccc(-c2ncn(C)n2)c1OC [CPD-145, 6-((5-(4-(1-(4-(((S)-1-((2S,4R)-4-Hydroxy-2-(((S)-1-(4-(4-methylthiazol-5-yl)phenyl)ethyl)carbamoyl)pyrrolidin-1-yl)-3,3-dimethyl-1-oxobutan-2-yl)amino)-4-oxobutanoyl)piperidin-4-yl)piperazin-1-yl)pyridin-2-yl)amino)-4-((2-methoxy-3-(1-methyl-1H-1,2,4-triazol-3-yl)phenyl)amino)-N-methylpyridazine-3-carboxamide] | – | B (B: <60% TYK2 degradation, and >20% TYK2 degradation) | –
